Source: PMC9959349, “Discovery of the 3-Amino-1,2,4-triazine-Based Library as Selective PDK1 Inhibitors with Therapeutic Potential in Highly Aggressive Pancreatic Ductal Adenocarcinoma” (International Journal of Molecular Sciences, 2023)
Like-named read-outs stand apart in the source and are kept apart here.

Assays:
recombinant human HSP90 = recombinant human HSP90 (Homo sapiens, UniProt P07900); assay: HSP90 inhibition assay (Transcreener ADP kit); format: biochemical; details: for decrease of HSP90 catalytic activity: 1.5 µM compound (equivalent doses)
Procedure: The in vitro inhibitory activity of tested compounds on recombinant human HSP90 was assessed by The Transcreener™ ADP kit (Bellbrook Labs) according to the manufacturer’s protocol. Human recombinant HSP90 protein was incubated with tested compounds in the presence of 250 μM ATP at 37 °C for 30 min, 4°C for 30 min and ATPase activity was stopped via the addition of the stop and detect buffer. Following this, samples were incubated for 1 h at room temperature with the ADP2 Antibody and the ADP Alexa594 Tracer. The fluorescence intensity polarization of samples was measured with a Tecan plate reader (Tecan Infinite® M200). The evaluation was based on means from at least three independent experiments.

[1] = test system: S232 PDH E1 alpha protein (PDHA1) phosphorylation in PSN-1 cells; assay: Cellular PDH phosphorylation (ELISA); format: cell-based, human; details: 24 h, IC50 concentrations
Procedure: As a first step, the ability of representative derivatives to target PDK in intact cancer cells was assessed by evaluating their effect on PDH phosphorylation of PSN-1 cancer cells.
PSN-1 cells (2 × 10^5) were seeded in a six-well plate in growth medium (4 mL). After 24 h, cells were incubated for 24 h with IC50 concentrations of tested compounds. Subsequently, the phosphorylation level of S232 PDH E1 alpha protein (PDHA1) was assessed by ELISA Kit (Abcam) following the manufacturer’s instructions. The amount of phosphorylated S232 PDHA1 protein was detected by measuring the absorbance of each well at 600 nm, using a Bio-Rad 680 microplate reader.

PSN-1 cells [2] = assay: Cellular oxygen consumption (Mito-ID Extracellular O2 Sensor Kit); format: cell-based, human; details: IC50 concentrations
Procedure: (§1) Cells were treated with DAP or representative compounds at IC50 concentrations and the changes in OCR and in the intracellular lactate formation were monitored.
PSN-1 cells (2 × 10^5) were seeded in a six-well plate in growth medium (4 mL). After 24 h, cells were incubated for 60 min with IC50 concentrations of tested compounds. Subsequently, oxygen consumption was assessed by Mito-ID® Extracellular O2 Sensor Kit according to manufacturer’s instructions. Fluorescence was measured using a Tecan microplate reader (Ex 340–400 nm, Em 630–680 nm).

PSN-1 cells [3] = assay: Cellular lactate production; format: cell-based, human; details: IC50 concentrations
Procedure: as §1
PSN-1 cells (2 × 10^5) were seeded in a six-well plate in a growth medium (4 mL). After 24 h, cells were incubated for 60 min with IC50 concentrations of tested compounds. Changes in lactate production were assessed via colorimetric microplate assay (Lactate assay kit®, Merk, St. Louis, MO, USA) according to the manufacturer’s instructions. The intracellular lactate concentration was detected by measuring the absorbance of each well at 570 nm, using a Bio-Rad 680 microplate reader.

PSN-1 cells [4] = assay: ROS production (CM-H2DCFDA); format: cell-based, human; details: 5 µM test compounds, antimycin 3 µM as positive control
Procedure: Consistently, tested compounds, although to different extents, were effective in reducing total cellular sulfhydryl contents in PSN-1-treated cells (Figure 9B).
The production of ROS was measured in PSN-1 cells (10^4 per well) grown for 24 h in a 96-well plate in RPMI medium without phenol red (Sigma Aldrich, Germany). Cells were then washed with PBS and loaded with 10 μM 5-(and-6)-chloromethyl-2′,7′-dichlorodihydrofluorescein diacetate acetylester (CM–H2DCFDA) (Molecular Probes-Invitrogen, Eugene, OR, USA) for 45 min, in the dark. Afterward, cells were washed with PBS and incubated with tested compounds. Fluorescence increase was estimated utilizing the wavelengths of 485 nm (excitation) and 527 nm (emission) in a VICTOR X3 (PerkinElmer, USA) plate reader. Antimycin (3 μM, Sigma Aldrich), a potent inhibitor of Complex III in the electron transport chain, was used as the positive control.

PSN-1 cells [5] = assay: Mitochondrial membrane potential (Mito-ID kit); format: cell-based, human; details: IC50 concentrations
Procedure: The ΔΨ was assayed using the Mito-ID® Membrane Potential Kit according to the manufacturer’s instructions (Enzo Life Sciences, Farmingdale, NY, USA) as previously described. Briefly, PSN-1 cells (8 × 10^3 per well) were seeded in 96-well plates; after 24 h, cells were washed with PBS and loaded with Mito-ID Detection Reagent for 30 min at 37 °C in the dark. Afterward, cells were incubated with tested compounds for 60 min. CCCP (Carbonyl cyanide 3-chlorophenyl-hydrazone) was used as the positive control. Fluorescence intensity was estimated using a VICTOR X3 (PerkinElmer, Waltham, MA, USA) plate reader at 490 (excitation) and 590 nm (emission).

recombinant human PDK1 = recombinant human PDK1 (Homo sapiens, UniProt Q15118); assay: ADP-Glo kinase assay, PDK1; details: for effect on enzymatic activity of PDK1: 1.5 µM compound, 30 min preincubation
Procedure: (§4) The ability of tested compounds to inhibit the activity of PDK 1–4 isoforms was primarily assessed in cell-free experiments by a chemioluminescent assay, the ADPGlo™ Kinase Assay kit from Promega (Promega Corporation, Madison, WI, USA).
(§5) The in vitro inhibitory activity of tested compounds on recombinant human PDK1-4 isoforms (Abcam, Cambridge, MA, USA) was evaluated by using the ADPGlo™ Kinase Assay kit from Promega (Promega Corporation, Madison, WI, USA) following the instructions of the manufacturer. […] The reaction was then started by the addition of substrate/ATP for 60 min at room temperature. Subsequently, ADP-Glo™ reagent was added and incubated for 40 min prior to kinase detection reagent addition. After 30 min, the luminescence was measured with a Tecan plate reader (Tecan Infinite® M200). Raw data were normalized to the values of control wells and luminescence values for each drug dose were expressed as a percentage of the luminescence of control untreated wells. […] The evaluation was based on means from at least three independent experiments.

PSN-1 cells [6] = assay: 3D spheroid cytotoxicity, acid phosphatase (APH) assay, PSN-1; details: read-out: IC50 ±S.D. PSN-1 (3D cytotoxicity); spheroids, 72 h, APH test
Procedure: (§6) The PDAC cancer spheroids were treated with tested compounds for 72 h, and cell viability was assessed by means of the acid phosphatase (APH) assay (Table 3).
(§7) An APH-modified assay was used for determining cell viability in 3D spheroids, as previously described [61]. Briefly, the pre-seeded spheroids were treated with fresh medium containing the compound to be studied at the appropriate concentration (range 2.5–200 μM). Triplicate cultures were established for each treatment. After 72 h, each well was treated with 100 μL of the assay buffer (0.1 M sodium acetate, 0.1% Triton-X-100, supplemented with ImmunoPure p-nitrophenyl phosphate; Sigma Chemical Co., Ltd.) and, following 3 h of incubation, 10 μL of 1 M NaOH solution was added. […] The mean absorbance for each drug dose was expressed as a percentage of the control untreated well absorbance (T/C) and plotted vs. drug concentration. […] The evaluation was based on means from at least four independent experiments.

BxPC-3 cells [7] = assay: 3D spheroid cytotoxicity, acid phosphatase (APH) assay, BxPC-3; details: read-out: IC50 ±S.D. BxPC-3 (3D cytotoxicity); spheroids, 72 h, APH test
Procedure: as §6, §7

PSN-1 cells [8] = assay: TEM analysis of mitochondria; format: cell-based, human; details: 24 h, IC50 concentrations
Procedure: In addition, TEM analyses were performed on PSN-1 cancer cells after 24 h treatment with IC50 concentrations of the representative compounds 5i and 6h.
About 10^6 PSN-1 cancer cells were seeded in 24-well plates and, after 24 h incubation, were treated with IC50 concentrations of tested compounds and incubated for an additional 24 h. Cells were then washed with cold PBS, harvested, and directly fixed with 1.5% glutaraldehyde buffer with 0.2 M sodium cacodylate, pH 7.4. After washing with buffer and postfixation with 1% OsO4 in 0.2 M cacodylate buffer, specimens were dehydrated and embedded in epoxy resin (Epon Araldite). Sagittal serial sections (1 μm) were counterstained with toluidine blue; thin sections (90 nm) were given contrast by staining with uranyl acetate and lead citrate. Micrographs were taken with a Hitachi H-600 electron microscope (Hitachi, Tokyo, Japan) operating at 75 kV. All photos were typeset in Corel Draw 11.

[9] = test system: caspase-3 and -8 in PSN-1 cells; assay: Caspase-3 and -8 activity; format: cell-based, human; details: 24 h, IC50 doses
Procedure: Apoptotic cell death can be triggered by a mitochondria-mediated or mitochondrial-independent pathways. In the […], caspase-8 and caspase-3 play an essential role. […] Staurosporine (STS), an alkaloid inducing apoptosis through caspase-3 and -8 activation was used as a positive control. […] Caspase-3 and -8 cleavage reached values similar to that induced by the well-known caspase-dependent apoptosis inducer staurosporine (Figure 10C).
Protein aliquots (100 μg) were stained at 37 °C for 60 min with fluorescent caspase-3 (N-acetyl-Asp-Glu-Val-Asp-AMC, AMC = 7-amino-4-methylcoumarin) or caspase-8 (Ac-Val-Glu-Thr-Asp-AMC) substrates. Substrate hydrolysis was measured after 60 min by monitoring the release of AMC using a a Tecan microplate reader (excitation at 370 nm, emission at 460 nm).

PSN-1 cells [10] = assay: Cell death induction, Hoechst 33258 staining; format: cell-based, human; details: 48 h, IC50 doses
Procedure: As a last mechanistic evaluation, the ability of selected compounds 5i and 6h to induce cancer cell death by means of apoptosis, was also assessed.
PSN-1 cells were seeded into 8-well tissue-culture slides (BD Falcon, Bedford, MA, USA) at 5 × 10^4 cells/well (0.8 cm^2). […] Samples were examined at 5× and 40× magnification in a Zeiss LSM 800 confocal microscope using the Zeiss ZEN 2.3 software system (Zeiss, Oberkochen, Germany).

PSN-1 cells [11] = assay: 2D cytotoxicity, MTT assay, PSN-1; format: cell-based; details: Homo sapiens, PSN1, 72 h, 72 h, MTT test, KRAS-mutant PSN-1; read-out: IC50 ±S.D. PSN-1 (2D cytotoxicity)
Procedure: (§2) All newly synthesized compounds were then screened for their cytotoxic activity against two human PDAC cell lines, namely a KRAS-wild-type PDAC cell line (BxPC-3 cells) and a KRAS-mutant PDAC cell line (PSN-1 cells). […] The cytotoxicity parameters, expressed in terms of IC50 and obtained after 72 h of drug exposure by MTT assay, are listed in the Supplementary Materials (Table S2).
(§3) The growth inhibitory effect on tumor cells was evaluated by means of the MTT assay. Briefly, 3–8 × 10^3 cells/well, dependent upon the growth characteristics of the cell line, were seeded in 96-well microplates in growth medium (100 μL). After 24 h, the medium was removed and replaced with a fresh one containing the compound to be studied at the appropriate concentration. Triplicate cultures were established for each treatment. After 72 h, each well was treated with 10 μL of a 5 mg/mL MTT saline solution, and following 5 h of incubation, 100 μL of a sodium dodecyl sulfate (SDS) solution in HCl 0.01 M was added. After overnight incubation, cell growth inhibition was detected by measuring the absorbance of each well at 570 nm using a Bio-Rad 680 microplate reader. The mean absorbance for each drug dose was expressed as a percentage of the control untreated well absorbance and plotted vs. drug concentration. IC50 values, the drug concentrations that reduce the mean absorbance at 570 nm to 50% of those in the untreated control wells, were calculated by the four-parameter logistic (4-PL) model. The evaluation was based on means from at least four independent experiments.

BxPC-3 cells [12] = assay: 2D cytotoxicity, MTT assay, BxPC-3; format: cell-based; details: Homo sapiens, BXPC-3, 72 h, 72 h, MTT test, KRAS-wild-type BxPC-3; read-out: IC50 ±S.D. BxPC-3 (2D cytotoxicity)
Procedure: as §2, §3

recombinant human PDK4 = recombinant human PDK4 (Homo sapiens, UniProt Q16654); assay: ADP-Glo kinase assay, PDK4; details: 1.5 µM compound
Sequence of recombinant human PDK4 (Q16654 whole entry): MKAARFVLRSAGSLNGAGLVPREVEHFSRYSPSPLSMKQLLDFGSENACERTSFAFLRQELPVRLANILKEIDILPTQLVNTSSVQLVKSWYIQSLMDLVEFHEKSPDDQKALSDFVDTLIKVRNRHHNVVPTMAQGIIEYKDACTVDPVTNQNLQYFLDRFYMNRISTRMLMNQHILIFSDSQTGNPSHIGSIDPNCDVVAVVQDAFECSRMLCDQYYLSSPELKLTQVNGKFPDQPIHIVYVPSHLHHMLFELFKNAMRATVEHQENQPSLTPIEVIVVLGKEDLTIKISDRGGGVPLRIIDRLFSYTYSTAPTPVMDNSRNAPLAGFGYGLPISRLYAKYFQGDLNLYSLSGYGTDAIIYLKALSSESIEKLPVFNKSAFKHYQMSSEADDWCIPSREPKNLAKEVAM
Procedure: as §4, §5

Sequence of recombinant human PDK1 (Q15118 29-436): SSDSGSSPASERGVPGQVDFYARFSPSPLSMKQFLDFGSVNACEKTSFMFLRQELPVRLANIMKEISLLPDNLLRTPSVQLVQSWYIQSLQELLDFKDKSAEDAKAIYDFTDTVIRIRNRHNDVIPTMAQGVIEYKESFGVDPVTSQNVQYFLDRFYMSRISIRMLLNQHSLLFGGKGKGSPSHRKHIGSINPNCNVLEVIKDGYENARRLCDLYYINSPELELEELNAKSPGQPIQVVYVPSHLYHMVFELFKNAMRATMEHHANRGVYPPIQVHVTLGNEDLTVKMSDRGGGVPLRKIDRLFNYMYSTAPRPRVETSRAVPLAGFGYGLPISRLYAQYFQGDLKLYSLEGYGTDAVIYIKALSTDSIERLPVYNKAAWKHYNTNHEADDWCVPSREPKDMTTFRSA

Structure (SMILES) | decrease of HSP90 catalytic activity (recombinant human HSP90) | reduction in phospho-PDHA1 (S232) levels [1] | cellular oxygen consumption (OCR) (PSN-1 cells [2]) | lactate production (PSN-1 cells [3]) | ROS basal level production / hydrogen peroxide formation (PSN-1 cells [4]) | percentage of cells with hypopolarized mitochondrial membrane potential (in words) (PSN-1 cells [5]) | melting point [°C] | IC50 (recombinant human PDK1) [µM] | effect on enzymatic activity of PDK1 (recombinant human PDK1) | IC50 (PSN-1 cells [6]) [µM] | IC50 (BxPC-3 cells [7]) [µM] | IC50 (recombinant human HSP90) [µM] | effect on HSP90 enzyme activity (recombinant human HSP90; 1.5 µM compound) | mitochondrial morphology (TEM) (PSN-1 cells [8]) | caspase-3 and -8 activation [9] | apoptosis induction (nuclear morphology) (PSN-1 cells [10]) | IC50 (PSN-1 cells [11]) [µM] | IC50 (BxPC-3 cells [12]) [µM] | IC50 (recombinant human PDK1; read-out: IC50 ±S.D. PDK1, four-parameter logistic model, three independent experiments) [µM] | effect on PDK4 activity (ATP consumption) (recombinant human PDK4)
COc1ccc2c(c1)c(-c1nc(N)nnc1-c1cn(C)c3ccc(F)cc13)cn2C [5k] | 60–80% | very similar to that exerted by the reference PDK inhibitor DAP | more effective than DAP | more potent than DAP | even higher than that provoked by antimycin | significantly increased | 239.5 | 0.01 ± 0.003 | totally suppressed | 15.9 ± 2.3 | 67.9 ± 3.7 | – | – | – | – | – | – | – | – | –
COc1ccc2c(c1)c(-c1nnc(N)nc1-c1cn(C)c3ccccc13)cn2C [6h] | – | – | – | – | increase in the ROS basal level production | significantly increased | – | 0.08 ± 0.01 | totally suppressed | 24.3 ± 1.4 | 33.4 ± 3.6 | 0.2 | completely abolish the enzyme activity | dramatic swelling of the mitochondria | significantly activated | brightly stained nuclei and morphological features typical of cells undergoing apoptosis | – | – | – | –
Cn1cc(-c2nnc(N)nc2-c2cn(C)c3ccccc23)c2cc(Br)ccc21 [6j] | 60–80% | very similar to that exerted by the reference PDK inhibitor DAP | – | – | even higher than that provoked by antimycin | significantly increased | 266 | – | totally suppressed | 18.1 ± 2.3 | 41.2 ± 3.6 | – | – | – | – | – | 0.6 ± 0.1 | 0.2 ± 0.04 | 0.07 ± 0.02 | completely blocked
